{
  "source": "patent US20240287048A1",
  "about": "“SUBSTITUTED ACYL SULFONAMIDES FOR TREATING CANCER” (The Broad Institute, Inc., priority 2020, published 2024)",
  "key": {"[1]": {"tested_on": "LCLC-97TM1 cells", "test": "Proliferation assay in LCLC-97TM1 cells", "format": "cell-based", "conditions": "Homo sapiens, 144 h, Alamar Blue, read-out: LCLC97TM1 proliferation assay, EC50[M] (arithmetic mean)", "method_in_brief": "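LCLC-97TM1 large-cell lung carcinoma cells were seeded at 6000 per well in RPMI 1640 with 2.5% FBS and exposed to compound for 144 h at 37 °C, 5% CO2, in triplicate. Viability was read by Alamar Blue fluorescence at 590 nm after 2 h.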"}, "[2]": {"tested_on": "Salmonella tester strain TA100", "test": "Bacterial reverse gene mutation test Ames MPF Penta I, TA100", "format": "cell-based", "text": "(§1) The employed commercial assay Ames MPF Penta I comprises the histidine auxotrophic Salmonella tester strains TA98, TA100, TA1535, TA1537 and two tryptophan auxotrophic tester strains E. coli wp2 (E. coli wp2 [pKM101] and E. coli wp2 uvrA, combined exposure). These strains meet the requirements of the OECD guideline 471 for testing chemicals.\n(§2) Bacterial strains were exposed to various concentrations of the test compounds in a histidine (His) or tryptophane (Trp) deficient medium. As recommended by ICH S2(R1) guideline, the test was conducted in two assay conditions, with and without addition of microsomal enzymes (S9 mix), taking the potential formation of DNA reactive metabolites via xenobiotic biotransformation into account.\n(§3) The potential of the test compound to induce gene mutations is assessed by comparing the control with the test compounds treated bacterial cultures."}, "[3]": {"target": "T1, KAT6B (Homo sapiens, UniProt Q8WYB5)", "T1 construct": "fused on or other part: N-terminal GST tag", "T1 sequence (Q8WYB5 723-2073 limits assumed)": "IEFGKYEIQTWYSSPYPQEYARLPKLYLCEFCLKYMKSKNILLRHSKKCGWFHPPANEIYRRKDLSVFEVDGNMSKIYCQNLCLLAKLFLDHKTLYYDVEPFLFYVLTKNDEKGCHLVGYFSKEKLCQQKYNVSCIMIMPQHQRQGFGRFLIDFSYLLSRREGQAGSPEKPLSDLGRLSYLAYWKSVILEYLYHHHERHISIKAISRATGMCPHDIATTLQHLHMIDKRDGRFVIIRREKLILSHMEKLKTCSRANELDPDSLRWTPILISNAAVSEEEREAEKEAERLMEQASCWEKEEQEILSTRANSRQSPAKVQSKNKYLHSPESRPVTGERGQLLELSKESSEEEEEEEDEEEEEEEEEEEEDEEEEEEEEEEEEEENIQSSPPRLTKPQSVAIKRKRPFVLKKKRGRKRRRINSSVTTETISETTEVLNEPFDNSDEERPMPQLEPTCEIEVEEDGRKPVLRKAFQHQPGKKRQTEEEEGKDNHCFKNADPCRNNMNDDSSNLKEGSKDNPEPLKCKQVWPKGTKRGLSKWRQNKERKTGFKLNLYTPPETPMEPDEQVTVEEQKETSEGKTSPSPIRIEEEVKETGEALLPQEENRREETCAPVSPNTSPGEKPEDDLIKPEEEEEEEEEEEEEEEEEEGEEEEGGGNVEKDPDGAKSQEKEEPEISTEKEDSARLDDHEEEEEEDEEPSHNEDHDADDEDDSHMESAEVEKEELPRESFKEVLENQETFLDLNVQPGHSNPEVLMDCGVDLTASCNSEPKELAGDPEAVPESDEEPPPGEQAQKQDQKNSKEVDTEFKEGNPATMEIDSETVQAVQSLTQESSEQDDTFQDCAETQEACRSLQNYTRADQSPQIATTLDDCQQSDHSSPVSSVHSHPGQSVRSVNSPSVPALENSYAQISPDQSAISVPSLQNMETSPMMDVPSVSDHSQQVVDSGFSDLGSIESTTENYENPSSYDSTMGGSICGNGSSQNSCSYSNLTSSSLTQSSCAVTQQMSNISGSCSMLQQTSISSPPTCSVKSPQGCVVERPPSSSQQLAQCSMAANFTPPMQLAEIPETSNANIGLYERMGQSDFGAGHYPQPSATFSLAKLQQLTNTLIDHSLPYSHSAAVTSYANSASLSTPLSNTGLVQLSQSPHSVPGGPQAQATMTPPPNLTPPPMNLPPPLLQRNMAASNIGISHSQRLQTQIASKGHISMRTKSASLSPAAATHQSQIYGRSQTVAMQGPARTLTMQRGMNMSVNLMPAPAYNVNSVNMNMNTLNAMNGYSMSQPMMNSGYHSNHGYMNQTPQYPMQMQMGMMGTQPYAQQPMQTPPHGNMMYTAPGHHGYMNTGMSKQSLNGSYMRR", "test": "Kat6b activity assay (TR-FRET, acetylation of biotinylated histone H4 peptide)", "format": "biochemical", "conditions": "recombinant human GST-tagged Kat6b (431-end), 30 mins at 22° C., read-out: KAT6B activity assay IC50 [mol/l] (arithmetic mean)"}, "[4]": {"tested_on": "Salmonella tester strain TA1537", "test": "Bacterial reverse gene mutation test Ames MPF Penta I, TA1537", "format": "cell-based", "text": "as §1, §2, §3"}, "[5]": {"target": "T2, KAT6A (Homo sapiens, UniProt Q92794)", "T2 construct": "Recombinant human His-tagged Kat6a protein (amino acids 194-810); His; made in house; host or cells: Baculovirus-infected Sf9 insect cells", "T2 sequence (Q92794 194-810)": "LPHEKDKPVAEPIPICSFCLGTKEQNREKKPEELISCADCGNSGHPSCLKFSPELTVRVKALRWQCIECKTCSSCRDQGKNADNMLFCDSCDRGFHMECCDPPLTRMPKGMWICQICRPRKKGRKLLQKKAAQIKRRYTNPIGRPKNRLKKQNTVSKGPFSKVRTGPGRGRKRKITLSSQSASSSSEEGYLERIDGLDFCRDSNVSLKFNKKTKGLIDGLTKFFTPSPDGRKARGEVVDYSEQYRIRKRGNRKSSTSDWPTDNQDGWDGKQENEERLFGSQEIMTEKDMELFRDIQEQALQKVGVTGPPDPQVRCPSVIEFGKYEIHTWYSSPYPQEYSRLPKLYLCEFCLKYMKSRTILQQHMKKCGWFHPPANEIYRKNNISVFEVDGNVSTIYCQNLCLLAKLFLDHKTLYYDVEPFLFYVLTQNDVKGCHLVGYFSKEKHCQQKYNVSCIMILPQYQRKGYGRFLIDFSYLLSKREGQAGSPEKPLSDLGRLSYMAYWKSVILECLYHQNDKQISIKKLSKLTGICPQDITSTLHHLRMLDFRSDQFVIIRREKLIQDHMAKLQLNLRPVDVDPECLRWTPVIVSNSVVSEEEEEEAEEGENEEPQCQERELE", "test": "Kat6a activity assay (TR-FRET, acetylation of biotinylated histone H4 peptide)", "format": "biochemical", "conditions": "recombinant human His-tagged Kat6a (amino acids 194-810), 60 mins at 22° C., read-out: KAT6A-DPF/HAT domain IC50 [mol/l] (arithmetic mean)", "method_in_brief": "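His-tagged human Kat6a (aa 194-810, Sf9-expressed) with compound (0.01-20 μM) for 60 min at 22° C., pH 8 Tris buffer, 220 nM biotinylated H4 peptide (aa 1-24) and 600 nM acetyl-CoA. Acetyl-K8 detected by Eu-antibody/SA-XL665 TR-FRET (665/620 nm ratio); IC50 from 4-parameter fit.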"}},
  "data": [
    {"compound": "O=C(NS(=O)(=O)c1ccccc1-c1ccccc1)c1cc2ccc(C3CC3)cc2o1", "note": "[Example 16, N-([1,1′-biphenyl]-2-sulfonyl)-6-cyclopropyl-1-benzofuran-2-carboxamide]", "values": [
      {"measurement": "EC50", "setting": "[1]", "result": "1.14e-05", "unit": "M"},
      {"measurement": "Result of the bacterial reverse gene mutation test Ames MPF Penta I, TA100", "setting": "[2]; with addition of S9 mix", "result": "negative"},
      {"measurement": "Result of the bacterial reverse gene mutation test Ames MPF Penta I, TA100", "setting": "[2]; without addition of S9 mix", "result": "negative"},
      {"measurement": "IC50", "setting": "[3]", "result": 0.104, "unit": "µM"},
      {"measurement": "Result of the bacterial reverse gene mutation test Ames MPF Penta I, TA1537", "setting": "[4]; with addition of S9 mix", "result": "negative"},
      {"measurement": "Result of the bacterial reverse gene mutation test Ames MPF Penta I, TA1537", "setting": "[4]; without addition of S9 mix", "result": "negative"},
      {"measurement": "IC50", "setting": "[5]", "result": 0.0624, "unit": "µM"}
    ]},
    {"compound": "CCOc1ccccc1S(=O)(=O)NC(=O)c1cc2ccc(C(C)C)cc2o1", "note": "[Example 55, N-(2-Ethoxybenzenesulfonyl)-6-(propan-2-yl)-1-benzofuran-2-carboxamide]", "values": [
      {"measurement": "EC50", "setting": "[1]", "result": "> 2e-05", "unit": "M"},
      {"measurement": "Result of the bacterial reverse gene mutation test Ames MPF Penta I, TA100", "setting": "[2]; with addition of S9 mix", "result": "negative"},
      {"measurement": "Result of the bacterial reverse gene mutation test Ames MPF Penta I, TA100", "setting": "[2]; without addition of S9 mix", "result": "negative"},
      {"measurement": "IC50", "setting": "[3]", "result": 0.538, "unit": "µM"},
      {"measurement": "Result of the bacterial reverse gene mutation test Ames MPF Penta I, TA1537", "setting": "[4]; with addition of S9 mix", "result": "negative"},
      {"measurement": "Result of the bacterial reverse gene mutation test Ames MPF Penta I, TA1537", "setting": "[4]; without addition of S9 mix", "result": "negative"},
      {"measurement": "IC50", "setting": "[5]", "result": 0.596, "unit": "µM"}
    ]}
  ]
}
